Measurements: publication PMC10600239, “Selective MCL-1 inhibitor ABBV-467 is efficacious in tumor models but is associated with cardiac troponin increases in patients” (Communications Medicine, 2023)
“And” between values parts separate entries of the source, which are not always exact repeats. Equal values may be shown once.

Test system: OPM-2 xenografts
Experiment: OPM-2 xenograft efficacy (tumor volume, body weight)
Assay type: in vivo, mouse
Settings: for Tumor Volume (mm³) Day 27, Mean: group mean; for Tumor Volume (mm³) Day 27, Median: group median; for Tumor Volume (mm³) Day 27 / Tumor Volume (mm³) Day 30 / Tumor Volume (mm³) Day 34: individual animals; for Tumor Volume (mm³) Day 23 (individual animals) / Tumor Volume Day 23, Mean / Tumor Volume Day 23, Median / % T/C (mean) / % T/C (median): Day 23
Procedure: All animal studies were conducted in accordance with the guidelines approved by the Institutional Animal Care and Use Committees of AbbVie. The research protocol was approved by In Vivo Pharmacology at AbbVie prior to study initiation but was not publicly registered or disclosed. Female C.B-17 SCID-beige mice (AMO-1, OPM-2, NCI-H929, and OCI-AML2 xenografts) and female NSG mice (MV4-11-Red.Fluc systemic) were purchased from Charles River Laboratories (Wilmington, MA). Animals were housed in a light cycle-controlled room with HEPA filtration at 22 °C. Animals had nesting and climbing cage topper as the primary environmental enrichment. Animals were inoculated subcutaneously in the right flank with 5 × 10^6 (AMO-1, OPM-2, NCI-H929, and OCI-AML2) or intravenous (IV) with 5 × 10^6 (MV4-11-Red.Fluc). The inoculation volume (0.2 mL) comprised a 50:50 mixture of cells in growth media and Matrigel (BD Biosciences) for subcutaneous injections and 100% phosphate-buffered saline for IV administration. All cell lines used in this publication were authenticated using IDEXX for STR profiling as well as their IMPACT and human IMPACT panels for pathogen screening. Electronic calipers were used to measure the length and width of each tumor 2 to 3 times per week. Tumor volume was estimated by applying the following equation: volume = length × width^2/2. All groups remained blinded during measurements and dosing; only veterinary staff were aware of group identity. When tumors reached approximately 200 mm^3, mice were randomized by match and distributed into treatment and control groups. All xenograft trials were conducted using 5 to 10 mice per group, and all mice were ear tagged and monitored individually throughout the studies. Any animal with a tumor above 2000 mm^3 or 15% loss in body weight was euthanized and removed from the study. Tumor burden in the systemic MV4-11-Red.Fluc experiment was measured using an IVIS® spectrum from PerkinElmer by taking the total photon flux of the entire dorsal side of an individual mouse. Ten minutes prior to imaging, animals received intraperitoneally 0.2 mL of a 15-mg/mL solution of D-Luciferin (PerkinElmer, Catalog #122799) formulated in 100% phosphate-buffered saline. Animals were anesthetized using 3.5% isoflurane and maintained using 2%. Six days after inoculation, animals were imaged and randomized into vehicle and treatment groups at a total flux of ~1 × 10^8. A background control mouse that was tumor naive but received D-Luciferin was placed in the upper left corner of each image. The total flux from this animal was subtracted from the total flux of each animal present in the image.
For in vivo studies, maximal tumor growth inhibition (TGI) was calculated as the greatest treatment response using the following equation: Maximal TGI = (1 − mean tumor volume of the treated group/mean tumor volume of the vehicle control group) × 100. The tumor growth delay (TGD) percentage was determined as the percentage increase of the median time period for the treatment group to reach an arbitrary tumor volume of 1000 mm^3 relative to the vehicle control group. […] A power analysis was conducted using historical data to determine the number of animals required to yield significance of 0.05 at a 30% difference. There were no animals excluded. Data from experiments in vivo were analyzed using the student’s t-test for TGI values and the Mann–Whitney U test for TGD using Excel and GraphPad Prism. Fisher’s exact test was used to probe significance of differences in response frequency.

[1] = 6.25 mg/kg q7dx3 IV, mean(T)/mean(C)
[2] = 6.25 mg/kg q7dx3 IV, median(T)/median(C)
[3] = 6.25 mg/kg q7dx3 IV, SCID-beige mice
[4] = 6.25 mg/kg q7dx3 IV, OPM-2 (DSMZ) xenograft, SCID-beige mice
[5] = 25 mg/kg q7dx3 IV, mean(T)/mean(C)
[6] = 25 mg/kg q7dx3 IV, median(T)/median(C)
[7] = 25 mg/kg q7dx3 IV, SCID-beige mice
[8] = 25 mg/kg q7dx3 IV, OPM-2 (DSMZ) xenograft, SCID-beige mice
[9] = OPM-2 (DSMZ) xenograft, SCID-beige mice, 6.25 mg/kg q7dx3 IV
[10] = OPM-2 (DSMZ) xenograft, SCID-beige mice, 25 mg/kg q7dx3 IV

**Q.** How did the “% Mortality” value (6.25 mg/kg IV q7dx3, clinical observation, SCID-beige mice, OPM-2 (DSMZ) xenograft) turn out when `Cc1c(Cl)c2c(Cl)c(C)c1-c1c(-c3ccc(F)cc3)sc3ncnc(c13)O[C@@H](C(=O)O)Cc1cc(ccc1OCc1ccnc(-c3ccc(OC[C@H]4COCCO4)cc3)n1)OC[C@@H](CN1CCN(C)CC1)O2` [Compound A-1747745] was run?
**A.** 100.00%

**Q.** And the “Tumor Volume (mm³) Day 27, Mean” value (6.25 mg/kg q7dx3 IV)?
**A.** 468.28 mm³

**Q.** And the “Tumor Volume (mm³) Day 27, Median” value (6.25 mg/kg q7dx3 IV)?
**A.** 424.66 mm³

**Q.** And the “Tumor Volume (mm³) Day 27” value (6.25 mg/kg q7dx3 IV)?
**A.** 369 mm³ and 671 mm³ and 322 mm³ and 348 mm³ and 352 mm³ and 673 mm³ and 481 mm³ and 531 mm³

**Q.** What about the “Body Weight Day 27, % T/C (mean)” value [1] of the same molecule?
**A.** 97.79%

**Q.** What about the “Tumor Volume Day 27, % T/C (mean)” value [1] of the same molecule?
**A.** 49.20%

**Q.** And the “Body Weight Day 27, % T/C (median)” value [2]?
**A.** 97.79%

**Q.** And the “Tumor Volume Day 27, % T/C (median)” value [2]?
**A.** 41.20%

**Q.** And the “% T/C (mean), Tumor Volume Day 30” value (6.25 mg/kg q7dx3 IV)?
**A.** 42.91%

**Q.** And the “% T/C (median), Tumor Volume Day 30” value (6.25 mg/kg q7dx3 IV)?
**A.** 42.72%

**Q.** What about the “Tumor Volume Day 30, Mean” value (6.25 mg/kg q7dx3 IV) of the same molecule?
**A.** 634.52 mm³

**Q.** What about the “Tumor Volume Day 30, Median” value (6.25 mg/kg q7dx3 IV) of the same molecule?
**A.** 618.80 mm³

**Q.** And the “Tumor Volume (mm³) Day 30” value [3]?
**A.** 375 mm³ and 897 mm³ and 567 mm³ and 528 mm³ and 560 mm³ and 806 mm³ and 673 mm³ and 670 mm³

**Q.** And the “Tumor Volume Day 34, Mean” value (6.25 mg/kg q7dx3 IV)?
**A.** 930.42 mm³

**Q.** And the “Tumor Volume Day 34, Median” value (6.25 mg/kg q7dx3 IV)?
**A.** 940.62 mm³

**Q.** What about the “Tumor Volume (mm³) Day 34” value [3] of the same molecule?
**A.** 591 mm³ and 1061 mm³ and 690 mm³ and 703 mm³ and 1071 mm³ and 821 mm³ and 1142 mm³ and 1365 mm³

**Q.** What about the “Tumor Volume (mm³) Day 23 (individual animals)” value [4] of the same molecule?
**A.** 264 mm³ and 376 mm³ and 277 mm³ (2×) and 196 mm³ and 349 mm³ and 392 mm³ and 253 mm³

**Q.** And the “Tumor Volume Day 23, Mean” value [4]?
**A.** 298.00 mm³

**Q.** And the “Tumor Volume Day 23, Median” value [4]?
**A.** 276.63 mm³

**Q.** What about the “% T/C (mean)” value (6.25 mg/kg q7dx3 IV, OPM-2 (DSMZ) xenograft, mean(T)/mean(C)) of the same molecule?
**A.** 68.08%

**Q.** What about the “% T/C (median)” value (6.25 mg/kg q7dx3 IV, OPM-2 (DSMZ) xenograft, median(T)/median(C)) of the same molecule?
**A.** 67.57%

**Q.** What about the “% Mortality” value (25 mg/kg IV q7dx3, clinical observation, SCID-beige mice, OPM-2 (DSMZ) xenograft) of the same molecule?
**A.** 0.00%

**Q.** And the “% BW Loss” value (25 mg/kg IV q7dx3, day 27, clinical observation)?
**A.** -2% (day 27)

**Q.** And the “Tumor Volume (mm³) Day 27, Mean” value (25 mg/kg q7dx3 IV)?
**A.** 75.56 mm³

**Q.** And the “Tumor Volume (mm³) Day 27, Median” value (25 mg/kg q7dx3 IV)?
**A.** 79.55 mm³

**Q.** What about the “Tumor Volume (mm³) Day 27” value (25 mg/kg q7dx3 IV) of the same molecule?
**A.** 109 mm³ and 83 mm³ and 115 mm³ and 60 mm³ and 69 mm³ and 4 mm³ and 77 mm³ and 88 mm³

**Q.** What about the “Body Weight Day 27, % T/C (mean)” value [5] of the same molecule?
**A.** 101.28%

**Q.** What about the “Tumor Volume Day 27, % T/C (mean)” value [5] of the same molecule?
**A.** 7.94%

**Q.** What about the “Body Weight Day 27, % T/C (median)” value [6] of the same molecule?
**A.** 101.28%

**Q.** What about the “Tumor Volume Day 27, % T/C (median)” value [6] of the same molecule?
**A.** 7.72%

**Q.** What about the “% T/C (mean), Tumor Volume Day 30” value (25 mg/kg q7dx3 IV) of the same molecule?
**A.** 2.78%

**Q.** What about the “% T/C (median), Tumor Volume Day 30” value (25 mg/kg q7dx3 IV) of the same molecule?
**A.** 0.28%

**Q.** What about the “Tumor Volume Day 30, Mean” value (25 mg/kg q7dx3 IV) of the same molecule?
**A.** 41.06 mm³

**Q.** What about the “Tumor Volume Day 30, Median” value (25 mg/kg q7dx3 IV) of the same molecule?
**A.** 4.00 mm³

**Q.** What about the “Tumor Volume (mm³) Day 30” value [7] of the same molecule?
**A.** 135 mm³ and 4 mm³ (5×) and 87 mm³ (2×)

**Q.** What about the “Tumor Volume Day 34, Mean” value (25 mg/kg q7dx3 IV) of the same molecule?
**A.** 4.00 mm³

**Q.** And the “Tumor Volume Day 34, Median” value (25 mg/kg q7dx3 IV)?
**A.** 4.00 mm³

**Q.** What about the “Tumor Volume (mm³) Day 34” value [7] of the same molecule?
**A.** 4 mm³

**Q.** And the “Tumor Volume (mm³) Day 23 (individual animals)” value [8]?
**A.** 275 mm³ and 201 mm³ and 232 mm³ and 269 mm³ and 236 mm³ and 126 mm³ and 388 mm³ and 205 mm³

**Q.** And the “Tumor Volume Day 23, Mean” value [8]?
**A.** 241.42 mm³

**Q.** And the “Tumor Volume Day 23, Median” value [8]?
**A.** 233.81 mm³

**Q.** And the “% T/C (mean)” value (25 mg/kg q7dx3 IV, OPM-2 (DSMZ) xenograft, mean(T)/mean(C))?
**A.** 55.16%

**Q.** And the “% T/C (median)” value (25 mg/kg q7dx3 IV, OPM-2 (DSMZ) xenograft, median(T)/median(C))?
**A.** 57.11%

**Q.** What about the “Tumor Volume Day 20, Mean” value [9] of the same molecule?
**A.** 237.41 mm³

**Q.** What about the “Tumor Volume Day 20, Median” value [9] of the same molecule?
**A.** 234.06 mm³

**Q.** What about the “Tumor Volume (mm³) Day 20, individual animals” value (OPM-2 (DSMZ) xenograft, SCID-beige mice, 6.25 mg/kg q7dx3 IV, 6.25 mg/kg) of the same molecule?
**A.** 217 mm³ and 238 mm³ and 188 mm³ and 184 mm³ and 290 mm³ and 300 mm³ and 252 mm³ and 230 mm³

**Q.** What about the “Tumor Volume Day 20, % T/C (mean)” value (OPM-2 (DSMZ) xenograft, SCID-beige mice, 6.25 mg/kg q7dx3 IV, mean(T)/mean(C)) of the same molecule?
**A.** 99.97%

**Q.** What about the “Tumor Volume Day 20, % T/C (median)” value (OPM-2 (DSMZ) xenograft, SCID-beige mice, 6.25 mg/kg q7dx3 IV, median(T)/median(C)) of the same molecule?
**A.** 101.50%

**Q.** What about the “Body Weight Day 21, % T/C (mean)” value (OPM-2 (DSMZ) xenograft, SCID-beige mice, 6.25 mg/kg q7dx3 IV, Day 21, mean(T)/mean(C)) of the same molecule?
**A.** 100.00%

**Q.** What about the “Body Weight Day 21, % T/C (median)” value (OPM-2 (DSMZ) xenograft, SCID-beige mice, 6.25 mg/kg q7dx3 IV, Day 21, median(T)/median(C)) of the same molecule?
**A.** 100.00%

**Q.** And the “Tumor Volume Day 20, Mean” value [10]?
**A.** 237.54 mm³

**Q.** And the “Tumor Volume Day 20, Median” value [10]?
**A.** 238.03 mm³

**Q.** What about the “Tumor Volume (mm³) Day 20, individual animals” value (OPM-2 (DSMZ) xenograft, SCID-beige mice, 25 mg/kg q7dx3 IV, 25 mg/kg) of the same molecule?
**A.** 283 mm³ and 220 mm³ and 249 mm³ and 228 mm³ and 248 mm³ and 178 mm³ and 301 mm³ and 193 mm³

**Q.** And the “Tumor Volume Day 20, % T/C (mean)” value (OPM-2 (DSMZ) xenograft, SCID-beige mice, 25 mg/kg q7dx3 IV, mean(T)/mean(C))?
**A.** 100.03%

**Q.** What about the “Tumor Volume Day 20, % T/C (median)” value (OPM-2 (DSMZ) xenograft, SCID-beige mice, 25 mg/kg q7dx3 IV, median(T)/median(C)) of the same molecule?
**A.** 103.23%
